Results: patent publication EP4810489A1, “SUBSTITUTED 2-(PYRROLIDIN-3-YL)ACETIC ACID DERIVATIVE, PREPARATION METHOD THEREFOR AND USE THEREOF” (Innovstone Therapeutics Limited, priority 2023, dated 2025)

Tests used:
Lp(a) assembly = biological target: T1, Lp(a) assembly (Homo sapiens, UniProt P08519); assay: ELISA assay on screening Lp(a) assembly inhibition; type: cell-based; conditions: HepG2 cells overexpressing ApoA protein, 24h incubation, ELISA of culture supernatant
T1 construct: expressed in transfected cells; host or cells: HepG2 cells overexpressing apo(a)
Protocol: Test Example 1 and Methods of ELISA Assay on Screening Lp(a) Assembly Inhibition
1. Reagents, Consumables, Instruments
2. Cell Culture Media Preparation 2.1. Complete Cell Culture Media
3. Test Procedure • 3.1 Cell Culture and Passage • 1) Preheated the culture media, DPBS, and pancreatin in a 37°C water bath in advance. • 2) Digested cells with pancreatin, transferred the cell suspension to a 15 mL centrifuge tube, and centrifuged at 1000 rpm for 5 min. • 3) Resuspended the cells with culture media and transferred the cell suspension to a new T75 cell culture flask. • 4) Cultured at 37°C in a 5% CO2 incubator. • 3.2. Cell Seeding and Drug Administration • 1) Seeded HepG2 cells overexpressing of ApoA protein into a 96-well plate at 100 µL per well and incubated overnight for attachment. • 2) Replaced with fresh culture media the next day, then added diluted compounds, and cultured the cell plate in a 5% CO2, 37°C incubator for 24h. • 3.3. Preparation of Cell Culture Supernatant • 1) Added 10 µL of 1.5 M EACA to each well. • 2) Centrifuged at 1000 rpm for 1 min, and transferred 100 µL of cell culture supernatant to a pre-coated ELISA plate. • 3.4. […]

Lp(a) = assay: Humanized mouse Lp(a) inhibition test; type: in vivo, humanized Lp(a) transgenic mouse; conditions: oral, 5 mg/kg once daily for 3 consecutive days, blood 8 h after last dose
Protocol: Test Example 3 and Humanized Mouse Lp(a) Inhibition Test
The in vivo pharmacodynamics of the compounds in reducing Lp(a) was evaluated in a humanized Lp(a) transgenic mouse model.Lp(a) mice were obtained by crossing mice expressing humanized apoB-100 with mice expressing humanized apo(a) containing 16 Kringle repeats.Female mice aged 8-9 weeks were selected for the test.Housing conditions: standard light cycle (12 h light/12 h dark), temperature 20-25°C, humidity 40-70%, free access to water and normal diet.
One day before the test, mice were divided into vehicle control group and test article group (n=5/group) according to body weight and baseline plasma Lp(a) concentration. […] Eight hours after the last dose, 10 µL of blood was collected from the tail vein and transferred to a 1.5 mL centrifuge tube containing 90 µL of normal saline, mixed well, and left to stand on ice for 30min.The above samples were centrifuged at 4°C, 3000 rpm for 10 min, and the supernatant was collected and placed on ice.The Lp(a) concentration in the supernatant was measured by double-antibody sandwich ELISA using an anti-apo(a) capture antibody and an HRP-conjugated anti-ApoB detection antibody, with TMB for color development. The reaction was stopped with 1 N sulfuric acid, and the OD value was read at 450 nm on a Tecan microplate reader.Inhibition rate was calculated for each dosing group. […]

[1] = Safety assessment test in rats; type: in vivo, SD rats; conditions: oral gavage, 300 mg/kg and 1000 mg/kg once daily for 14 consecutive days
Protocol: Test Example 5 and Safety Assessment Test in Rats
The safety of the compounds of the present invention was evaluated by oral gavage administration to SD rats as the test animals.
Test method: 50 SD rats (half males and half females) were randomly divided into vehicle control group and test article group according to their body weight. The vehicle saline or the compound of the present invention or LY3473329 (300 mg/kg, 1000 mg/kg) was administered orally once daily for 14 consecutive days.

T1 sequence (P08519 20-2040): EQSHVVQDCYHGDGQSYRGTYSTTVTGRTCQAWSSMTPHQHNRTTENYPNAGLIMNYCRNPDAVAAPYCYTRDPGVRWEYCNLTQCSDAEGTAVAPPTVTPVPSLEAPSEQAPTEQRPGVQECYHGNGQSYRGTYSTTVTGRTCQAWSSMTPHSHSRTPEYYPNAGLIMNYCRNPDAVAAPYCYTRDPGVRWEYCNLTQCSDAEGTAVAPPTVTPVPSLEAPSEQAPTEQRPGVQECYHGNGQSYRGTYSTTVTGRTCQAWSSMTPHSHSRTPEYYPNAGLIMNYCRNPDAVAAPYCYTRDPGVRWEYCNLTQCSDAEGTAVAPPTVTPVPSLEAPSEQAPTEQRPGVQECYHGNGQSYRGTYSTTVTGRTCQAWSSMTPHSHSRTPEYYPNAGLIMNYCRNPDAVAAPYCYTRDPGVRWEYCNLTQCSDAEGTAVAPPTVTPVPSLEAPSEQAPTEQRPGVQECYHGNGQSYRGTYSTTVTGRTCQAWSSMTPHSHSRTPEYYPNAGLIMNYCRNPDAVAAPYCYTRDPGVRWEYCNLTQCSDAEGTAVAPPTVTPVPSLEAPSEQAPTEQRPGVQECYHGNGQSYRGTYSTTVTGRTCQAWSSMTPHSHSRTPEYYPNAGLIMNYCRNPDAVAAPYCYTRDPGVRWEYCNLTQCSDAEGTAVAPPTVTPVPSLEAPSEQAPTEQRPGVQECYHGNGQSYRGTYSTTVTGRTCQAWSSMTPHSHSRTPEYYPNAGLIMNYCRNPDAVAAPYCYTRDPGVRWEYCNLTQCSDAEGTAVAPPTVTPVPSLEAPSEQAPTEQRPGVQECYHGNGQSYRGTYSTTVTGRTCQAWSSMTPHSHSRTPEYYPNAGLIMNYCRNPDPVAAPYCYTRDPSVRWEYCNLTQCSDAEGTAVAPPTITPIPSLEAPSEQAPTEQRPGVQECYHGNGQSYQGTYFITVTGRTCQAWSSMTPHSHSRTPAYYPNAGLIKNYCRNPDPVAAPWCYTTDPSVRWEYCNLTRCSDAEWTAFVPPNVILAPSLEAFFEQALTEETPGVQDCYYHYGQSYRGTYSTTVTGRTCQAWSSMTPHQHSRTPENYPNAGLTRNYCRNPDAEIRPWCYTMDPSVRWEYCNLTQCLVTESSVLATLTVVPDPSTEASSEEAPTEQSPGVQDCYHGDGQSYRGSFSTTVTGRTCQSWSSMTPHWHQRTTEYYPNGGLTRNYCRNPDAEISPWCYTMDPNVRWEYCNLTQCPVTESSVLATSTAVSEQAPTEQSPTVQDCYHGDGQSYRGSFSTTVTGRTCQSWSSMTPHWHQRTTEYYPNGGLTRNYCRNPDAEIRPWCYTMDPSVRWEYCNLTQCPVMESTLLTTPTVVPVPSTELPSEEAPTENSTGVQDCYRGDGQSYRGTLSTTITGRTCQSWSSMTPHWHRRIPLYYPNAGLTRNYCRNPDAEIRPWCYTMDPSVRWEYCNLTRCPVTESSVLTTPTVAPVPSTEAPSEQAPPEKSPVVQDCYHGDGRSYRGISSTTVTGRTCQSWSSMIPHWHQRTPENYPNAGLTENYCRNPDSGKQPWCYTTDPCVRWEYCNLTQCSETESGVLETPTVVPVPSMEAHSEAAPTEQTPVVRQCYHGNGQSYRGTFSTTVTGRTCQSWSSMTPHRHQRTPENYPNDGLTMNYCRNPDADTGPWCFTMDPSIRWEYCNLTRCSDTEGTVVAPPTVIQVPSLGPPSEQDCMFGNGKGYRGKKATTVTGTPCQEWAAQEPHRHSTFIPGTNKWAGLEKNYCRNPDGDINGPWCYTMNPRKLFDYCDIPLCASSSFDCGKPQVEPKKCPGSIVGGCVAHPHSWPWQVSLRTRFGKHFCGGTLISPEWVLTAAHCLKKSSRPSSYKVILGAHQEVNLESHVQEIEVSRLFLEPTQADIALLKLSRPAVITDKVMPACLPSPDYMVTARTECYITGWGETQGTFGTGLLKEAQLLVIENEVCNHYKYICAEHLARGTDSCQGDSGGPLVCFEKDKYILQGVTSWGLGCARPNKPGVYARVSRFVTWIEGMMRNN

## O=C(O)[C@@H](Cc1ccc2c(CN(Cc3n[nH]c4cc(C[C@H](C(=O)O)[C@H]5CCNC5)ccc34)Cc3n[nH]c4cc(C[C@H](C(=O)O)[C@H]5CCNC5)ccc34)n[nH]c2c1)[C@H]1CCNC1 [Compound 136]
Lp(a) assembly
  IC50: 2.16 nM

## O=C(O)[C@@H](Cc1cccc(CN(Cc2cccc(C[C@H](C(=O)O)[C@H]3CCNC3)c2)Cc2cccc(C[C@H](C(=O)O)[C@H]3CCNC3)c2)c1)[C@H]1CCNC1 [LY3473329]
Lp(a) assembly
  IC50: 1.05 nM
Lp(a)
  Lp(a) Inhibition Rate: 56%
[1]
  changes in clinical observation, body weight and weight gain, food consumption, hematology, blood biochemistry, urine, organ weight and coefficients, and histopathology: no changes
